Measurements reported in patent US11382328B2, “Rapid drug discovery methods for pathogen inactivation” (priority 2019, dated 2022).
“And” between values parts separate entries of the source, which are not always exact repeats. Equal values may be shown once. Read-outs that look alike come from different tables or passages of the source.

System: E. coli strain W3110
Experiment: Synergy assays: Biolog chemical sensitivity panels with Group IB metal, coefficient of drug interaction (CDI) from relative growth
Type: cell-based
Conditions: for CDI (coefficient of drug interaction), copper mixed with biocide: Copper (mM) section
[1] = Copper (mM), 1st of 3 copper concentrations (head line not shown), biocide concentration 4 of 4, E. coli
[2] = Copper (mM), 2nd of 3 copper concentrations (head line not shown), biocide concentration 3 of 4, E. coli
[3] = Copper (mM), 2nd of 3 copper concentrations (head line not shown), biocide concentration 4 of 4, E. coli
[4] = Copper (mM), 3rd of 3 copper concentrations (head line not shown), biocide concentration 4 of 4, E. coli
[5] = Gold (μM), first of 3 gold concentrations, biocide concentration 4 of 4
[6] = Gold (μM), second of 3 gold concentrations, biocide concentration 4 of 4
[7] = Gold (μM), third of 3 gold concentrations, biocide concentration 4 of 4
[8] = Silver 0.5 μM, biocide concentration 3 of 4
[9] = Silver 0.5 μM, biocide concentration 4 of 4
[10] = Silver 1.0 μM, biocide concentration 3 of 4
[11] = Silver 1.0 μM, biocide concentration 4 of 4
[12] = Silver 5.0 μM, biocide concentration 3 of 4
[13] = Silver 5.0 μM, biocide concentration 4 of 4
[14] = 1st of 3 copper concentrations (value not shown), 3rd of four biocide concentrations
[15] = 1st of 3 copper concentrations (value not shown), 4th of four biocide concentrations
[16] = 2nd of 3 copper concentrations (value not shown), 3rd of four biocide concentrations
[17] = 2nd of 3 copper concentrations (value not shown), 4th of four biocide concentrations
[18] = 3rd of 3 copper concentrations (value not shown), 3rd of four biocide concentrations
[19] = 3rd of 3 copper concentrations (value not shown), 4th of four biocide concentrations
[20] = Silver 0.5 μM, 3rd of four biocide concentrations, E. coli
[21] = Silver 0.5 μM, 4th of four biocide concentrations, E. coli
[22] = Silver 1.0 μM, 3rd of four biocide concentrations, E. coli
[23] = Silver 1.0 μM, 4th of four biocide concentrations, E. coli
[24] = Silver 5.0 μM, 3rd of four biocide concentrations, E. coli
[25] = Silver 5.0 μM, 4th of four biocide concentrations, E. coli

Cc1onc(-c2ccccc2Cl)c1C(=O)N[C@@H]1C(=O)N2[C@@H]1SC(C)(C)[C@@H]2C(=O)O [cloxacillin]
CDI (coefficient of drug interaction) [1]: Tox
CDI (coefficient of drug interaction) [2]: Tox
CDI (coefficient of drug interaction) [3]: Tox
CDI (coefficient of drug interaction) [4]: Tox
CDI (coefficient of drug interaction), gold + biocide [5]: Tox
CDI (coefficient of drug interaction), gold + biocide [6]: Tox
CDI (coefficient of drug interaction), gold + biocide [7]: Tox
CDI [8]: Tox
CDI [9]: Tox
CDI [10]: Tox
CDI [11]: Tox
CDI [12]: Tox
CDI [13]: Tox

penimepicycline
CDI (coefficient of drug interaction) (Copper (mM), 1st of 3 copper concentrations (head line not shown), biocide concentration 1 of 4, E. coli): 0.91
CDI (coefficient of drug interaction) (Copper (mM), 1st of 3 copper concentrations (head line not shown), biocide concentration 2 of 4, E. coli): 1.07
CDI (coefficient of drug interaction) (Copper (mM), 1st of 3 copper concentrations (head line not shown), biocide concentration 3 of 4, E. coli): Tox
CDI (coefficient of drug interaction) [1]: Tox
CDI (coefficient of drug interaction) (Copper (mM), 2nd of 3 copper concentrations (head line not shown), biocide concentration 1 of 4, E. coli): 0.70
CDI (coefficient of drug interaction) (Copper (mM), 2nd of 3 copper concentrations (head line not shown), biocide concentration 2 of 4, E. coli): 0.87
CDI (coefficient of drug interaction) [2]: Tox
CDI (coefficient of drug interaction) [3]: Tox
CDI (coefficient of drug interaction) (Copper (mM), 3rd of 3 copper concentrations (head line not shown), biocide concentration 1 of 4, E. coli): 0.51
CDI (coefficient of drug interaction) (Copper (mM), 3rd of 3 copper concentrations (head line not shown), biocide concentration 2 of 4, E. coli): 0.64
CDI (coefficient of drug interaction) (Copper (mM), 3rd of 3 copper concentrations (head line not shown), biocide concentration 3 of 4, E. coli): Tox
CDI (coefficient of drug interaction) [4]: Tox
CDI (coefficient of drug interaction), gold + biocide (Gold (μM), first of 3 gold concentrations, biocide concentration 1 of 4): 1.07
CDI (coefficient of drug interaction), gold + biocide (Gold (μM), first of 3 gold concentrations, biocide concentration 2 of 4): 1.12
CDI (coefficient of drug interaction), gold + biocide (Gold (μM), first of 3 gold concentrations, biocide concentration 3 of 4): Tox
CDI (coefficient of drug interaction), gold + biocide [5]: Tox
CDI (coefficient of drug interaction), gold + biocide (Gold (μM), second of 3 gold concentrations, biocide concentration 3 of 4): Tox
CDI (coefficient of drug interaction), gold + biocide [6]: Tox
CDI (coefficient of drug interaction), gold + biocide (Gold (μM), third of 3 gold concentrations, biocide concentration 1 of 4): 0.90
CDI (coefficient of drug interaction), gold + biocide (Gold (μM), third of 3 gold concentrations, biocide concentration 2 of 4): 0.80
CDI (coefficient of drug interaction), gold + biocide (Gold (μM), third of 3 gold concentrations, biocide concentration 3 of 4): Tox
CDI (coefficient of drug interaction), gold + biocide [7]: Tox
CDI (Silver 0.5 μM, biocide concentration 2 of 4): 1.10
CDI [8]: Tox
CDI [9]: Tox
CDI (Silver 1.0 μM, biocide concentration 1 of 4): 0.91
CDI (Silver 1.0 μM, biocide concentration 2 of 4): 0.91
CDI [10]: Tox
CDI [11]: Tox
CDI (Silver 5.0 μM, biocide concentration 1 of 4): 0.49
CDI (Silver 5.0 μM, biocide concentration 2 of 4): 0.34
CDI [12]: Tox
CDI [13]: Tox

phleomycin
CDI (coefficient of drug interaction), copper mixed with biocide (1st of 3 copper concentrations (value not shown), 1st of four biocide concentrations): 0.99
CDI (coefficient of drug interaction), copper mixed with biocide (1st of 3 copper concentrations (value not shown), 2nd of four biocide concentrations): 1.27
CDI (coefficient of drug interaction), copper mixed with biocide [14]: Tox
CDI (coefficient of drug interaction), copper mixed with biocide [15]: Tox
CDI (coefficient of drug interaction), copper mixed with biocide (2nd of 3 copper concentrations (value not shown), 1st of four biocide concentrations): 1.09
CDI (coefficient of drug interaction), copper mixed with biocide (2nd of 3 copper concentrations (value not shown), 2nd of four biocide concentrations): 1.19
CDI (coefficient of drug interaction), copper mixed with biocide [16]: Tox
CDI (coefficient of drug interaction), copper mixed with biocide [17]: Tox
CDI (coefficient of drug interaction), copper mixed with biocide (3rd of 3 copper concentrations (value not shown), 1st of four biocide concentrations): 0.99
CDI (coefficient of drug interaction), copper mixed with biocide (3rd of 3 copper concentrations (value not shown), 2nd of four biocide concentrations): 0.96
CDI (coefficient of drug interaction), copper mixed with biocide [18]: Tox
CDI (coefficient of drug interaction), copper mixed with biocide [19]: Tox
CDI (coefficient of drug interaction) (Gold section of Table 5, first of three gold concentrations (μM, value not given), biocide concentration 1 of 4): 0.98
CDI (coefficient of drug interaction) (Gold section of Table 5, first of three gold concentrations (μM, value not given), biocide concentration 2 of 4): 1.06
CDI (coefficient of drug interaction) (Gold section of Table 5, first of three gold concentrations (μM, value not given), biocide concentration 4 of 4): 1.33
CDI (coefficient of drug interaction) (Gold section of Table 5, second of three gold concentrations (μM, value not given), biocide concentration 2 of 4): 1.03
CDI (coefficient of drug interaction) (Gold section of Table 5, second of three gold concentrations (μM, value not given), biocide concentration 3 of 4): 0.88
CDI (coefficient of drug interaction) (Gold section of Table 5, second of three gold concentrations (μM, value not given), biocide concentration 4 of 4): 0.87
CDI (coefficient of drug interaction) (Gold section of Table 5, third of three gold concentrations (μM, value not given), biocide concentration 1 of 4): 0.99
CDI (coefficient of drug interaction) (Gold section of Table 5, third of three gold concentrations (μM, value not given), biocide concentration 2 of 4): 0.96
CDI (coefficient of drug interaction) (Gold section of Table 5, third of three gold concentrations (μM, value not given), biocide concentration 3 of 4): 0.92
CDI (coefficient of drug interaction) (Gold section of Table 5, third of three gold concentrations (μM, value not given), biocide concentration 4 of 4): 1.29
CDI (coefficient of drug interaction), silver + biocide (Silver 0.5 μM, 1st of four biocide concentrations, E. coli): 0.81
CDI (coefficient of drug interaction), silver + biocide (Silver 0.5 μM, 2nd of four biocide concentrations, E. coli): 0.61
CDI (coefficient of drug interaction), silver + biocide [20]: 0.68
CDI (coefficient of drug interaction), silver + biocide [21]: Tox
CDI (coefficient of drug interaction), silver + biocide (Silver 1.0 μM, 1st of four biocide concentrations, E. coli): 0.89
CDI (coefficient of drug interaction), silver + biocide (Silver 1.0 μM, 2nd of four biocide concentrations, E. coli): 0.81
CDI (coefficient of drug interaction), silver + biocide [22]: 0.81
CDI (coefficient of drug interaction), silver + biocide [23]: Tox
CDI (coefficient of drug interaction), silver + biocide (Silver 5.0 μM, 1st of four biocide concentrations, E. coli): 1.32
CDI (coefficient of drug interaction), silver + biocide (Silver 5.0 μM, 2nd of four biocide concentrations, E. coli): 1.43
CDI (coefficient of drug interaction), silver + biocide [24]: 1.37
CDI (coefficient of drug interaction), silver + biocide [25]: Tox

NNC(N)=O [semicarbazide]
CDI (coefficient of drug interaction), copper mixed with biocide [17]: Tox
CDI (coefficient of drug interaction), silver + biocide [20]: Tox
CDI (coefficient of drug interaction), silver + biocide [21]: Tox
CDI (coefficient of drug interaction), silver + biocide [22]: Tox
CDI (coefficient of drug interaction), silver + biocide [23]: Tox
CDI (coefficient of drug interaction), silver + biocide [24]: Tox
CDI (coefficient of drug interaction), silver + biocide [25]: Tox

CCn1cc(C(=O)O)c(=O)c2cnc(N3CCNCC3)nc21 [pipemidic acid]
CDI (coefficient of drug interaction), copper mixed with biocide [14]: Tox
CDI (coefficient of drug interaction), copper mixed with biocide [15]: Tox
CDI (coefficient of drug interaction), copper mixed with biocide [16]: Tox
CDI (coefficient of drug interaction), copper mixed with biocide [17]: Tox
CDI (coefficient of drug interaction), copper mixed with biocide [18]: Tox
CDI (coefficient of drug interaction), copper mixed with biocide [19]: Tox

O=[N+]([O-])c1ccc(Cl)c([N+](=O)[O-])c1 [1-chloro-2,4-dinitrobenzene]
CDI (coefficient of drug interaction), copper mixed with biocide [15]: Tox
CDI (coefficient of drug interaction), copper mixed with biocide [17]: Tox
CDI (coefficient of drug interaction), copper mixed with biocide [19]: Tox

N[C@@H](CC(=O)NO)C(=O)O [L-Aspartic-β-hydroxamate]
CDI (coefficient of drug interaction), gold + biocide: 1.03 and 1.06 and 1.05 and 1.11 and 1.19 and 1.02 and 1.01
